Laboratory results from patent publication US20110268711A1, “PANCREATIC STELLATE CELL SPECIFIC PROMOTER AND USES THEREOF” (AGENCY FOR SCIENCE, TECHNOLOGY AND RESEARCH, priority 2007, published 2011).
Entries after “also recorded” stand apart in the source; their conditions may differ. Read-outs that look alike come from different tables or passages of the source.

Tested on: 2.2-kb hGFAP promoter (GFAP-LacZ transgene) in SAM-K cells
Type: cell-based
Details: for decrease of relative β-Gal activity / decrease in β-Gal activity: vs 0.2% DMSO control; for decrease in β-Gal activity: kinase inhibitor 10 μM; for induction of GFAP-lacZ transgene expression (β-Gal activity) by exogenous cytokines: TGF-β 1 and 10 ng/ml, PDGF-BB 10 ng/ml, TNF-α 10 ng/ml, 24, 32, 48 and 60 hours after treatment
Procedure: Transfection and isolation of stable cell lines: The 2.2-kb hGFAP-LacZ (Maubach, G., et al., World J Gastroenterol, 2006, 12(5): 723-30) or the 2.2-kb hGFAP-DsRed plasmid was used to transfect PSC lines, using LIPOFECTAMINE™ 2000 (Invitrogen, CA, USA) according to the manufacturer's instructions. DsRed expression was identified under fluorescence microscope (Leica, Wetzlar, Germany). To isolate the stable clones expressing GFAPLacZ in SAM-K cell line, 24 hours after transfection, the cell culture medium was changed into medium containing Zeocin (500 μg/ml, Invitrogen, CA, USA). The single clones were isolated by dilution in the 96 well plates, the positive β-galactosidase (β-Gal) clones were identified by β-Gal staining kit from Invitrogen (CA, USA). Stable clones were maintained in culture medium containing 250 μg/ml Zeocin.
Treatment of PSCs with cell signaling inhibitors: Before treatment with different factors, SAM-K cells stably expressing the GFAP-LacZ at 70-80% confluence were starved in 0.5% FBS overnight, TGF-β (1 ng/ml, 10 ng/ml), PDBF-BB (10 ng/ml), and TNF-α (10 ng/ml) treatments were carried out at different time points, PBS buffer (0.2%) treatment served as control. Kinase inhibitors (10 μM), including LY 294002, U0126, SP600125, SB 203580, retinol and its metabolites, including retinol, 9-RA, ATRA, were applied to the cell culture medium at both 2 μM and 5 μM concentrations. Treatment in 0.2% DMSO served as control. The transgenic β-Gal activity was quantified at various times following treatment.
To obtain cryostat sections, the pancreas was removed from both GFAP-LacZ transgenic mouse and wild type mouse of the same FVB/N genetic background, and were fixed in 4% PFA fixative for 30 minutes. The fixed tissues were infiltrated overnight with 30% sucrose. Small pieces of tissue were mounted in OCT medium, and 14-μm sections were collected onto POLYSINE™ slides (Menzel GmbH & Co KG, Braunschweig, Germany). The expression of lacZ gene was detected using a staining kit from Invitrogen. The sections were stained with X-gal substrate overnight at room temperature, and subsequently counter-stained with eosin, prior to being mounted on slides with HYDROMOUNT™ (National diagnostics, Georgia, USA). To quantify the GFAP-LacZ expression, the β-Gal activity in the total cell extracts was measured with an enzymatic assay kit (Promega, WI, USA).
Statistical analysis: All quantitative results were presented as mean±SE; data were analyzed with Student t-test.

Molecule | decrease of relative β-Gal activity (2 μM, 24 hours after treatment) | decrease of relative β-Gal activity (2 μM, 48 hours after treatment) [%] | decrease of relative β-Gal activity (5 μM, 24 hours after treatment) | decrease of relative β-Gal activity (5 μM, 48 hours after treatment) | decrease in β-Gal activity (24 hours after treatment) | decrease in β-Gal activity (48 hours after treatment) | induction of GFAP-lacZ transgene expression (β-Gal activity) by exogenous cytokines
CC1=C(/C=C/C(C)=C/C=C/C(C)=C/CO)C(C)(C)CCC1 [retinol] | ~33% | 49 | ~38% | about 48% |  |  | 
CC1=C(/C=C/C(C)=C\C=C\C(C)=C\C(=O)O)C(C)(C)CCC1 [9-RA, 9-cis retinoic acid] | about 44% | 37 | about 48% | about 46% |  |  | 
C[S+]([O-])c1ccc(-c2nc(-c3ccncc3)c(-c3ccc(F)cc3)[nH]2)cc1 (centres unmarked) [SB 203580] |  |  |  |  | not as significant | no significant effects | 
CC1=C(/C=C/C(C)=C/C=C/C(C)=C/C(=O)O)C(C)(C)CCC1 [ATRA, all-trans retinoic acid] | ~42% | 33 | ~42% | ~31% |  |  | 
Oc1c2ccccc2c2c3c(cccc13)N=N2 [SP 600125] |  |  |  |  | about 25% | about 10% | 
N#CC(=C(/N)Sc1ccccc1N)/C(C#N)=C(\N)Sc1ccccc1N [U0126] |  |  |  |  | approximately 40% | about 15% | 
TGF-β: recombinant TGF-β1 from R&D, pro-fibrogenic cytokine |  |  |  |  |  |  | None of the treatments specifically induced transgene expression; also recorded: No significant change in enzymatic activity
TNF-α |  |  |  |  |  |  | None of the treatments specifically induced transgene expression; also recorded: No significant change in enzymatic activity
O=c1cc(N2CCOCC2)oc2c(-c3ccccc3)cccc12 [LY 294002] |  |  |  |  | ~19% | about 15% | 
PDGF-BB: recombinant platelet derived growth factor-BB from R&D (protein, UniProt P01127 82-190, looked up) Platelet-derived growth …: SLGSLTIAEPAMIAECKTRTEVFEISRRLIDRTNANFLVWPPCVEVQRCSGCCNNRNVQCRPTQVQLRPVQVRKIEIVRKKPIFKKATVTLEDHLACKCETVAAARPVT |  |  |  |  |  |  | None of the treatments specifically induced transgene expression; also recorded: No significant change in enzymatic activity
